Laboratory results published in the supplement of paper PMC10627819.

Assays:
Settings in all cases: main component drawn
B. subtilis 168 [1] = test: fitness (endpoint OD595 vs no drug) (fraction); higher = more growth
How it was run: (§1)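 Growth medium was TSB, LB Lennox or CY, and plates were kept at 37 °C. Inoculation was at OD595 0.01 in 384-well plates, at 30 µl per well or 55 µl for S. pneumoniae. OD595 was monitored every 30 min for 14 h and background-subtracted using the first reading. Fitness is the optical density on entering stationary phase divided by the robust mean of no-drug controls, with values capped at 1.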

S. aureus Newman [2] = test: as above
How it was run: as §1

B. subtilis 168 [3] = test: Bliss interaction score (quartile over a dose matrix) (fitness difference); higher = more antagonism (negative = synergy)
How it was run: (§2)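 Combination data were used to infer fitness under each single drug. Fitness is the OD595 at entry into stationary phase divided by the robust mean of the plate's no-drug wells, with a cap of 1. The Bliss score is the observed minus the expected product fitness, summarised by quartiles over technical, biological and donor/recipient replicates.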

S. aureus DSM 20231 = test: as above
How it was run: as §2

S. aureus Newman [4] = test: as above
How it was run: as §2

S. pneumoniae D39V = test: as above
How it was run: as §2
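Wherever Bliss interaction score (quartile over a dose matrix) is given: first quartile when negative (synergy) and third quartile when positive (antagonism).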

CC[C@H](C)[C@H](N)C1=N[C@H](C(=O)N[C@@H](CC(C)C)C(=O)N[C@H](CCC(=O)O)C(=O)N[C@H](C(=O)N[C@H]2CCCCNC(=O)[C@H](CC(N)=O)NC(=O)[C@@H](CC(=O)O)NC(=O)[C@H](Cc3cnc[nH]3)NC(=O)[C@@H](Cc3ccccc3)NC(=O)[C@H]([C@@H](C)CC)NC(=O)[C@@H](CCCN)NC2=O)[C@@H](C)CC)CS1 [Bacitracin] + Cc1cc(NS(=O)(=O)c2ccc(N)cc2)no1 [Sulfamethoxazol]
fitness, one replicate
Settings | first compound 18.75 µg/mL | first compound 37.5 µg/mL | first compound 75 µg/mL | first compound 150 µg/mL
B. subtilis 168 [1], partner 0.5 µg/mL | – | 0.947 | 0.998 | ≥ 1
S. aureus Newman [2], partner 8 µg/mL | 0.729 | 0.454 | 0.0253 | –

fitness
Settings | partner 1 µg/mL | partner 2 µg/mL | partner 4 µg/mL
B. subtilis 168 [1], first compound 37.5 µg/mL | 0.856 | 0.855 | 0.941
B. subtilis 168 [1], first compound 75 µg/mL | 0.832 | 0.851 | 0.852
S. aureus Newman [2], first compound 18.75 µg/mL | 0.775 | 0.76 | 0.819
S. aureus Newman [2], first compound 75 µg/mL | 0.0141 | 0.009 | 0.0028

Settings | Bliss interaction score
B. subtilis 168 [3] | 0.0966
S. aureus DSM 20231 | -0.0266
S. aureus Newman [4] | 0.104
S. pneumoniae D39V | 0.0767

CC[C@H](C)[C@H](N)C1=N[C@H](C(=O)N[C@@H](CC(C)C)C(=O)N[C@H](CCC(=O)O)C(=O)N[C@H](C(=O)N[C@H]2CCCCNC(=O)[C@H](CC(N)=O)NC(=O)[C@@H](CC(=O)O)NC(=O)[C@H](Cc3cnc[nH]3)NC(=O)[C@@H](Cc3ccccc3)NC(=O)[C@H]([C@@H](C)CC)NC(=O)[C@@H](CCCN)NC2=O)[C@@H](C)CC)CS1 [Bacitracin] + Cc1ncc([N+](=O)[O-])n1CCO [Metronidazole]
fitness
Settings | partner 0.625 µg/mL | partner 0.781 µg/mL | partner 1.25 µg/mL | partner 1.562 µg/mL | partner 2.5 µg/mL | partner 3.124 µg/mL
B. subtilis 168 [1], first compound 37.5 µg/mL | 0.956 | – | 0.931 | – | 0.902 | –
B. subtilis 168 [1], first compound 75 µg/mL | 0.964 | – | 0.931 | – | 0.903 | –
B. subtilis 168 [1], first compound 150 µg/mL | – | – | – | – | 0.811 | –
S. aureus Newman [2], first compound 18.75 µg/mL | 0.741 | 0.702 | 0.757 | 0.716 | 0.743 | 0.687
S. aureus Newman [2], first compound 37.5 µg/mL | 0.308 | 0.21 | 0.243 | 0.243 | 0.181 | 0.26
S. aureus Newman [2], first compound 75 µg/mL | 0.0054 | 0.03 | 0.0112 | 0.0279 | 0.0054 | 0.0683

Settings | Bliss interaction score
B. subtilis 168 [3] | 0.103
S. aureus DSM 20231 | 0.0734
S. aureus Newman [4] | 0.0714
S. pneumoniae D39V | 0.127
